From patent US20090163508A1, “AMIDE COMPOUND” (TAKEDA PHARMACEUTICAL COMPANY LIMITED, priority 2007, published 2009)

Tested on: mouse
Experiment: Analgesic effect in acetic acid writhing test on mouse
Format: in vivo
Settings: po, 20 min, 10 mg/kg orally, 60 minutes before 0.6% acetic acid i.p., count over 20 minutes relative to the reference group
Description: A suspension of the test compound (10 mg/kg) was orally administered to a mouse. 60 minutes after the administration, a 0.6% aqueous acetic acid solution was intraperitoneally administered in an amount of 10 mL/kg. The mouse was accommodated in a special cage from immediately after the administration until 20 minutes after, and the writhing response was counted. The mean count number was compared relative to the reference group, so as to examine the difference (student's t-test), and the analgesic effect was evaluated.

Going from `Cc1noc(NC(=O)N2CCN(c3ccnc(-c4cccc(F)c4F)n3)CC2)c1C` [Example 5, 4-[2-(2,3-difluorophenyl)pyrimidin-4-yl]-N-(3,4-dimethylisoxazol-5-yl)piperazine-1-carboxamide] to `Cc1noc(NC(=O)N2CCN(c3cncc(-c4ccc(F)cc4F)n3)CC2)c1C` [Example 14, 4-[6-(2,4-difluorophenyl)pyrazin-2-yl]-N-(3,4-dimethylisoxazol-5-yl)piperazine-1-carboxamide], the response vs control in vivo at 10 mg/kg rises from 42.2% to 67.2%.

Going from `O=C(Nc1cccnc1)N1CCN(c2nccc(-c3ccc(F)cc3F)n2)CC1` [Example 15, 4-[4-(2,4-difluorophenyl)pyrimidin-2-yl]-N-pyridin-3-ylpiperazine-1-carboxamide] to `O=C(Nc1cccnn1)N1CCN(c2nccc(-c3ccc(F)cc3F)n2)CC1` [Example 17, 4-[4-(2,4-difluorophenyl)pyrimidin-2-yl]-N-pyridazin-3-ylpiperazine-1-carboxamide], the response vs control in vivo at 10 mg/kg falls from 66.7% to 56.9%.

First: Cc1noc(NC(=O)N2CCN(c3cc(-c4ccc(F)cc4F)ncn3)CC2)c1C [Example 19, 4-[6-(2,4-difluorophenyl)pyrimidin-4-yl]-N-(3,4-dimethylisoxazol-5-yl)piperazine-1-carboxamide]
Second: O=C(Nc1cccnn1)N1CCN(c2nccc(-c3ccc(F)c(F)c3)n2)CC1 [Example 110, 4-[4-(3,4-difluorophenyl)pyrimidin-2-yl]-N-pyridazin-3-ylpiperazin-1-carboxamide]
The response vs control in vivo at 10 mg/kg of the first is higher: 51.9% for the first, 34.7% for the second.

Compared with `O=C(Nc1cccnc1)N1CCN(c2nccc(-c3ccccc3)n2)CC1` [Example 77, 4-(4-phenylpyrimidin-2-yl)-N-pyridin-3-ylpiperazine-1-carboxamide], `O=C(Nc1cccnn1)N1CCN(c2nccc(-c3ccccc3)n2)CC1` [Example 79, 4-(4-phenylpyrimidin-2-yl)-N-pyridazin-3-ylpiperazine-1-carboxamide] is lower in response vs control in vivo at 10 mg/kg: 46.8% for the first, 38.9% for the second.
